Reference: patent publication US10391080B2, “Ketorolac for the treatment of cancer” (Cipla Limited, priority 2016, dated 2019)
Where two headings read alike, the source gives them in different places.

Experiments:
[1] = tested on: RXF 1183L; assay: In vitro 3D combination study, clonogenic assay, Bliss independence; type: cell-based, human; details: RXF 1183L cells seeded in soft agar, concentration-dependent
Description: (§1) The objective of this study was to assess anti-tumor efficacy of ketorolac in combination with sunitinib in a 5×5 matrix combination format against tumor cell lines of renal cancer using a clonogenic assay with image analysis as read-out.
(§2) The clonogenic assay was carried out in a 96 well plate format using ultra low attachment plates. For each test cells were prepared as described above, and assay plates were prepared as follows: each test well contained a layer of semi-solid medium with tumor cells (50 μl), and a second layer of medium supernatant with or without test compounds (100 μl). The cell layer consisted of 3×10^3 to 1×10^4 tumor cells per well, which were seeded in 50 μl/well cell culture medium (IMDM, supplemented with 20% (v/v) fetal calf serum, 0.01% (w/v) gentamicin, and 0.4% (w/v) agar). The soft agar layer was immediately covered with 90 μl of the same culture medium without agar. After 24 h the test compounds were added after serial dilution in IMDM and transfer in cell culture medium, and left on the cells for the duration of the experiment (continuous exposure, 100 μL total drug overlay). Every plate included six untreated control wells and drug-treated groups in a layout as shown above. […] At the time of maximum colony formation, counts were performed with an automatic image analysis system (Celllnsight NXT, Thermo Scientific). […]

[2] = tested on: RXF A-498; assay: as above; type: cell-based, human; details: RXF A-498 cells seeded in soft agar, concentration-dependent
Description: as §1, §2

[3] = tested on: RXF 393L; assay: In vitro 2D assay, CellTiter-Blue Cell Viability Assay; type: cell-based; details: Homo sapiens, 96 h treatment
Description: (§3) The objective of this study was to investigate the in-vitro anticancer activity of ketorolac. Antitumor activity was assessed in ten selected renal cancer cell lines by using the CellTiter-Blue Cell Viability Assay. The human renal cancer cell lines RXF 1183L, RXF 1220L, RXF 1781L, RXF 393L, RXF 486L, RXF 786-0, RXF A-498, RXF ACHN, RXF Caki-1 and RXF SN12C were used. RXF 1183L, RXF 1220L, RXF 1781L, RXF 393L and RXF 486L were established at Oncotest from the corresponding human patient-derived xenograft. The cell lines 786-0, A-498, Caki-1 and SN12C were purchased from NCI (National Cancer Institute, Bethesda, Md., USA). ACHN was purchased from ECACC (European Collection of Cell Cultures, Salisbury, UK). Authenticity of cell lines was confirmed at the DSMZ by STR (short tandem repeat) analysis, a PCR based DNA-fingerprinting methodology.
(§4) Cell lines were routinely passaged once or twice weekly and maintained in culture for up to 20 passages. All cells were grown at 37° C. in a humidified atmosphere with 5% CO2 in RPMI 1640 medium (25 mM HEPES, with L-glutamine, #FG1385, Biochrom, Berlin, Germany) supplemented with 10% (v/v) fetal calf serum (Sigma, Taufkirchen, Germany) and 0.1 mg/mL gentamicin (Life Technologies, Karlsruhe, Germany).
(§5) Ketorolac was dissolved at a concentration of 60 mM in cell culture media. Starting with this stock solution, dilutions were made using cell culture media resulting in final test concentrations of 12000, 7800, 6000, 4200, 3000, 1800, 600, 420, 180, 60 μM. Precipitation was not observed.
(§6) The CellTiter-Blue Cell Viability Assay was used according to manufacturer's instructions. Briefly, cells were harvested from exponential phase cultures, counted and plated in 96-well flat-bottom microtiter plates at a cell density of 4,000-12,000 cells/well depending on the cell line's growth rate. After a 24 h recovery period to allow the cells to resume exponential growth, ketorolac was applied at 8 to 10 concentrations in duplicate and treatment continued for 96 h. After 96 h treatment of cells, 20 μL/well CellTiter-Blue® reagent was added. Following an incubation period of up to four hours, fluorescence (FU) was measured by using the Enspire Multimode Plate Reader (excitation λ=531 nm, emission λ=615 nm).
(§7) For calculations, the mean values of duplicate/quadruplicate (untreated control) data were used. Sigmoidal concentration-response curves were fitted to the data points (T/C values) obtained for each cell line using 4 parameter non-linear curve fit.

[4] = tested on: RXF ACHN; assay: as above; type: cell-based; details: Homo sapiens, 96 h treatment
Description: as §3, §4, §5, §6, §7

[5] = tested on: RXF 1183L; assay: as above; type: cell-based; details: Homo sapiens, 96 h treatment
Description: as §3, §4, §5, §6, §7

[6] = tested on: RXF SN12C; assay: as above; type: cell-based; details: Homo sapiens, 96 h treatment
Description: as §3, §4, §5, §6, §7

[7] = tested on: RXF 1781L; assay: as above; type: cell-based; details: Homo sapiens, 96 h treatment
Description: as §3, §4, §5, §6, §7

[8] = tested on: RXF A-498; assay: as above; type: cell-based; details: Homo sapiens, A498, A-498, 2D, 96 h treatment
Description: as §3, §4, §5, §6, §7

[9] = tested on: RXF 486L; assay: as above; type: cell-based; details: Homo sapiens, 96 h treatment
Description: as §3, §4, §5, §6, §7

[10] = tested on: RXF 786-0; assay: as above; type: cell-based; details: Homo sapiens, 786-O, 96 h treatment
Description: as §3, §4, §5, §6, §7

[11] = tested on: RXF Caki-1; assay: as above; type: cell-based; details: Homo sapiens, Caki-1, 2D, 96 h treatment
Description: as §3, §4, §5, §6, §7

[12] = tested on: RXF 1220L; assay: as above; type: cell-based; details: Homo sapiens, 96 h treatment
Description: as §3, §4, §5, §6, §7

[13] = tested on: tumor cell lines of renal cancer; assay: In vitro 3D combination study, clonogenic assay, both cell lines; type: cell-based; details: Homo sapiens, A498; compound alone, colony formation in soft agar, range over RXF 1183L and RXF A-498; read-out: Relative IC50, single agent
Description: as §1, §2

[14] = tested on: ten selected renal cancer cell lines; assay: In vitro 2D assay, CellTiter-Blue Cell Viability Assay, whole panel; type: cell-based, human; details: for IC50: Homo sapiens, geometric mean of ten cell lines, 96 h treatment
Description: as §3, §4, §5
The CellTiter-Blue Cell Viability Assay was used according to manufacturer's instructions. Briefly, cells were harvested from exponential phase cultures, counted and plated in 96-well flat-bottom microtiter plates at a cell density of 4,000-12,000 cells/well depending on the cell line's growth rate. […] Following an incubation period of up to four hours, fluorescence (FU) was measured by using the Enspire Multimode Plate Reader (excitation λ=531 nm, emission λ=615 nm). […]

O=C(c1ccccc1)c1ccc2n1CCC2C(=O)O (racemic) [Ketorolac, (±)-5-benzoyl-2,3-dihydro-1H-pyrrolizine-1-carboxylic acid]
Colony formation, single agent [1]: inhibited colony formation
Colony formation, single agent [2]: inhibited colony formation
IC50 ([3]; read-out: Absolute IC50): 3.14 mM
IC50 ([3]; read-out: Relative IC50): 3.75 mM
IC50 ([4]; read-out: Absolute IC50): 2.8 mM
IC50 ([4]; read-out: Relative IC50): 3.39 mM
IC50 ([5]; read-out: Absolute IC50): 2.4 mM
IC50 ([5]; read-out: Relative IC50): 2.67 mM
IC50 ([6]; read-out: Absolute IC50): 2.44 mM
IC50 ([6]; read-out: Relative IC50): 2.82 mM
IC50 ([7]; read-out: Absolute IC50): 3.82 mM
IC50 ([7]; read-out: Relative IC50): 4.44 mM
IC50 ([8]; read-out: Absolute IC50): 4.75 mM
IC50 ([8]; read-out: Relative IC50): 5.65 mM
IC50 ([9]; read-out: Absolute IC50): 3.15 mM
IC50 ([9]; read-out: Relative IC50): 3.29 mM
IC50 ([10]; read-out: Absolute IC50): 3.25 mM
IC50 ([10]; read-out: Relative IC50): 3.85 mM
IC50 ([11]; read-out: Absolute IC50): 2.79 mM
IC50 ([11]; read-out: Relative IC50): 3.44 mM
IC50 ([12]; read-out: Absolute IC50): 4.77 mM
IC50 ([12]; read-out: Relative IC50): 5.36 mM
IC50 [13]: 0.589 to 1.76 mM
IC50 ([14]; read-out: Absolute IC50, geometric mean): 3.24 mM
IC50 ([14]; read-out: Relative IC50, geometric mean): 3.76 mM
Activity in all cell lines tested (concentration-effect curves) ([14]; both runs, all cell lines tested): Concentration-dependent activity
